{"source": "patent US20240060139A1", "about": "“TREATMENT RESPONSE SIGNATURES” (Caris MPI, Inc., priority 2020, published 2024)", "tested_on": "ovarian cancers", "assay": "Kaplan Meier overall survival on platinum therapy against gene copy number at 5q1x and 3q2x (control analysis)", "format": "in vivo", "settings": "MAP3K1, IL6ST, PIK3R1 copy number; FIGS. 3F-H", "source_text": "We then asked whether loss of the PARP15 and PARP8 would also correlate with response or lack of response to PARPi therapy. For this analysis we looked at DNA copy number determined using next-generation sequencing of a panel of 592 genes. See Example 1. […] Without being bound by theory, loss at a one gene is highly correlated with loss of neighboring genes. As a control, we repeated the analysis shown in FIGS. 3C-E but used response to platinum compounds instead of PARPi, specifically carboplatin. […] As a control, we repeated the analysis shown in FIGS. 3I-K but used response to platinum compounds instead of PARPi.", "data": [{"molecule": "N.N.O=C([O-])C1(C(=O)[O-])CCC1.[Pt+2]", "note": "[carboplatin]", "values": [{"measurement": "response to platinum therapy (overall survival) by gene copy number at 5q1x", "result": "loss of copy number at 5q1x was correlated of positive benefit of platinum therapy"}]}]}
